{
  "source": "ChEMBL document CHEMBL6115007",
  "about": "“Synthesis and in vitro and in vivo evaluation of novel bivalent quinolines as antitumor agents via targeting autophagy in cervical cancer” (Eur J Med Chem, 2025)",
  "key": {"A549": {"test_system": "A549", "assay": "Antiproliferative activity against human A549 cells assessed as reduction in cell optical density incubated for 48 hrs by MTT assay", "format": "functional, cell-based", "settings": "A549, 48 h"}, "HeLa [1]": {"test_system": "HeLa", "assay": "Antiproliferative activity against human HeLa cells assessed as inhibition of cell growth at 0.4 to 1.6 uM by CCK8 assay", "format": "functional, cell-based", "settings": "dose 0.4-1.6 µM, time 6.0 day"}, "Ca-Ski [2]": {"test_system": "Ca-Ski", "assay": "Antiproliferative activity against human Ca Ski cells assessed as inhibition of cell growth at 0.4 to 1.6 uM by CCK8 assay", "format": "functional, cell-based", "settings": "dose 0.4-1.6 µM, time 6.0 day"}, "C-33-A": {"test_system": "C-33-A", "assay": "Inhibition of colony formation in human C-33-A cells assessed as reduction in colony forming unit count at 0.05 to 0.2 uM incubated for 24 hrs by crystal violet staining based analysis", "format": "functional, cell-based", "settings": "dose 0.05-0.2 µM"}, "HeLa [3]": {"test_system": "HeLa", "assay": "Induction of apoptosis in human HeLa cells assessed as necrotic cells at 0.6 uM incubated for 24 hrs by Annexin V-FITC/PI staining based flow cytometric analysis (reference value: 1.88 %)", "format": "functional"}, "HeLa [4]": {"test_system": "HeLa", "assay": "Induction of apoptosis in human HeLa cells assessed as viable cells at 0.6 uM preincubated with Z-VAD-FMK for 1 hrs followed by compound addition and measured after 24 hrs by Annexin V-FITC/PI staining based flow cytometric analysis (reference value: 95.8 %)", "format": "functional", "settings": "read-out: Activity"}, "Ca-Ski [5]": {"test_system": "Ca-Ski", "assay": "Induction of apoptosis in human Ca Ski cells assessed as viable cells at 0.5 uM preincubated with Z-VAD-FMK for 1 hrs followed by compound addition and measured after 24 hrs by Annexin V-FITC/PI staining based flow cytometric analysis (reference value: 90.2 %)", "format": "functional", "settings": "read-out: Activity"}, "Ca-Ski [6]": {"test_system": "Ca-Ski", "assay": "Induction of apoptosis in human Ca Ski cells assessed as early apoptotic cells at 1 uM preincubated with Z-VAD-FMK for 1 hrs followed by compound addition and measured after 24 hrs by Annexin V-FITC/PI staining based flow cytometric analysis (reference value: 2.91 %)", "format": "functional"}, "Ca-Ski [7]": {"test_system": "Ca-Ski", "assay": "Effect on caspase 3 expression level in human Ca Ski cells at 0.25 to 1 uM incubated for 24 hrs by Western blot analysis", "format": "functional, cell-based", "settings": "dose 0.25-1 µM"}, "HeLa [8]": {"test_system": "HeLa", "assay": "Antiproliferative activity against Bax deficient human HeLa cells assessed as inhibition of cell viability incubated for 24 hrs by CCK8 assay", "format": "functional, cell-based"}, "HeLa [9]": {"test_system": "HeLa", "assay": "Effect on caspase 3 expression level in p53 deficient human HeLa cells at 0.6 to 1.2 uM incubated for 24 hrs by Western blot analysis", "format": "functional, cell-based", "settings": "dose 0.6-1.2 µM"}, "HeLa [10]": {"test_system": "HeLa", "assay": "Effect on cleaved caspase 3 expression level in p53 deficient human HeLa cells at 0.6 to 1.2 uM incubated for 24 hrs by Western blot analysis", "format": "functional, cell-based", "settings": "dose 0.6-1.2 µM"}, "Ca-Ski [11]": {"test_system": "Ca-Ski", "assay": "Effect on cleaved PARP expression level in p53 deficient human Ca Ski cells at 0.5 to 1 uM incubated for 24 hrs by Western blot analysis", "format": "functional, cell-based", "settings": "dose 0.5-1 µM"}, "Ca-Ski [12]": {"test_system": "Ca-Ski", "assay": "Effect on caspase 3 expression level in p53 deficient human Ca Ski cells at 0.5 to 1 uM incubated for 24 hrs by Western blot analysis", "format": "functional, cell-based", "settings": "dose 0.5-1 µM"}, "Ca-Ski [13]": {"test_system": "Ca-Ski", "assay": "Effect on cleaved caspase 3 expression level in p53 deficient human Ca Ski cells at 0.5 to 1 uM incubated for 24 hrs by Western blot analysis", "format": "functional, cell-based", "settings": "dose 0.5-1 µM"}, "HeLa [14]": {"test_system": "HeLa", "assay": "Induction of ferroptosis in human HeLa cells assessed as increase in lipid ROS level by measuring rightward shift in fluorescence intensity at 0.6 uM measured after 24 hrs by C11-BODIPY-581/591 staining based flow cytometric analysis", "format": "functional, cell-based"}, "HeLa [15]": {"test_system": "HeLa", "assay": "Effect on SLC7A11 protein expression level in human HeLa cells at 0.6 uM incubated for 24 hrs by Western blot analysis", "format": "functional, cell-based"}, "Ca-Ski [16]": {"test_system": "Ca-Ski", "assay": "Induction of autophagy in human Ca Ski cells transfected with mRFP-GFP-LC3 plasmid assessed as appearance of RFP puncta clusters as aggregates in cytoplasm at 0.3 to 0.6 uM incubated for 24 hrs by DAPI staining based fluorescence confocal microscopic analysis", "format": "functional, cell-based", "settings": "dose 0.3-0.6 µM"}, "HeLa [17]": {"test_system": "HeLa", "assay": "Induction of autophagolysosome formation in human HeLa cells transfected with mRFP-GFP-LC3 plasmid assessed as increase in ratio of mRFP to GFP puncta at 0.4 to 0.8 uM incubated for 24 hrs", "format": "functional, cell-based", "settings": "dose 0.4-0.8 µM"}, "Ca-Ski [18]": {"test_system": "Ca-Ski", "assay": "Induction of autophagy in human Ca Ski cells assessed as increase in LC3-I conversion to LC3-II at 0.25 to 1 microM incubated for 24 hrs by Western blot analysis", "format": "functional, cell-based", "settings": "dose 0.25-1 µM"}, "HeLa [19]": {"test_system": "HeLa", "assay": "Induction of autophagy pathway in human HeLa cells at 1.2 uM incubated for 24 hrs by GSEA analysis", "format": "functional, cell-based"}, "HeLa [20]": {"test_system": "HeLa", "assay": "Antiproliferative activity against ATG5 deficient human HeLa cells assessed as inhibition of cell viability incubated for 24 hrs by CCK8 assay", "format": "functional, cell-based"}, "HeLa [21]": {"test_system": "HeLa", "assay": "Induction of autophagy in ATG7 deficient human HeLa cells assessed as increase in LC3-II expression at 0.6 to 1.2 uM incubated for 24 hrs by Western blot analysis", "format": "functional, cell-based", "settings": "dose 0.6-1.2 µM"}, "Ca-Ski [22]": {"test_system": "Ca-Ski", "assay": "Induction of autophagy in ATG5 deficient human Ca Ski cells assessed as increase in LC3-II expression at 0.5 to 1 uM incubated for 24 hrs by Western blot analysis", "format": "functional, cell-based", "settings": "dose 0.5-1 µM"}, "Ca-Ski [23]": {"test_system": "Ca-Ski", "assay": "Induction of autophagy in ATG7 deficient human Ca Ski cells assessed as increase in LC3-II expression at 0.5 to 1 uM incubated for 24 hrs by Western blot analysis", "format": "functional, cell-based", "settings": "dose 0.5-1 µM"}, "HeLa [24]": {"test_system": "HeLa", "assay": "Inhibition of colony formation in ATG5 deficient human HeLa cells at 0.15 to 0.6 uM incubated for 24 hrs by crystal violet staining based analysis", "format": "functional, cell-based", "settings": "dose 0.15-0.6 µM"}, "[25]": {"assay": "Toxicity in female BALB/c mouse xenografted with human HeLa cells assessed as effect on body weight at 4 to 8 mg/kg administered every four days and measured after 26 days", "format": "organism-based", "settings": "in vivo, 624 h, dose 4-8 mg/kg, time 26 day"}, "[26]": {"assay": "Toxicity in female BALB/c mouse xenografted with human HeLa cells assessed as effect on AST level at 4 to 8 mg/kg administered every four days and measured after 26 days", "format": "organism-based", "settings": "in vivo, 624 h, dose 4-8 mg/kg, time 26 day"}, "[27]": {"assay": "Toxicity in female BALB/c mouse xenografted with human HeLa cells assessed as effect on BUN level at 4 to 8 mg/kg administered every four days and measured after 26 days", "format": "organism-based", "settings": "in vivo, 624 h, dose 4-8 mg/kg, time 26 day"}, "[28]": {"assay": "Toxicity in female BALB/c mouse xenografted with human HeLa cells assessed as effect on RBC level at 4 to 8 mg/kg administered every four days and measured after 26 days", "format": "organism-based", "settings": "in vivo, 624 h, dose 4-8 mg/kg, time 26 day"}, "[29]": {"assay": "Toxicity in female BALB/c mouse xenografted with human HeLa cells assessed as effect on WBC level at 4 to 8 mg/kg administered every four days and measured after 26 days", "format": "organism-based", "settings": "in vivo, 624 h, dose 4-8 mg/kg, time 26 day"}, "Ca-Ski [30]": {"test_system": "Ca-Ski", "assay": "Induction of autophagy in human Ca Ski cells transfected with mRFP-GFP-LC3 plasmid assessed as decrease in GFP fluorescence at 25 uM incubated for 24 hrs by DAPI staining based fluorescence confocal microscopic analysis", "format": "functional, cell-based"}, "Ca-Ski [31]": {"test_system": "Ca-Ski", "assay": "Induction of autophagy in human Ca Ski cells transfected with mRFP-GFP-LC3 plasmid assessed as appearance of RFP puncta clusters as aggregates in cytoplasm at 25 uM incubated for 24 hrs by DAPI staining based fluorescence confocal microscopic analysis", "format": "functional, cell-based"}},
  "note": "The source made the active and inactive calls. The calls are words filed in the database; no cut-off is given here.",
  "data": [
    {"smiles": "COc1cccc(Nc2ccnc3cc(OCCCCCOc4ccc5c(Nc6cccc(OC)c6)ccnc5c4)ccc23)c1", "values": [
      {"measurement": "IC50", "setting": "A549", "result": 2750, "unit": "nM"},
      {"measurement": "Activity", "setting": "HeLa [1]", "result": "Time-dependent-effect"},
      {"measurement": "Activity", "setting": "Ca-Ski [2]", "result": "Time-dependent-effect"},
      {"measurement": "inhibition", "setting": "C-33-A", "result": "Active"},
      {"measurement": "Activity", "setting": "HeLa [3]", "result": 2.66, "unit": "%"},
      {"measurement": "viability at 0.6 µM", "setting": "HeLa [4]", "result": 94.9, "unit": "%"},
      {"measurement": "viability at 0.5 µM", "setting": "Ca-Ski [5]", "result": 73.7, "unit": "%"},
      {"measurement": "Activity", "setting": "Ca-Ski [6]", "result": 5.56, "unit": "%"},
      {"measurement": "Activity", "setting": "Ca-Ski [7]", "result": "inactive"},
      {"measurement": "IC50", "setting": "HeLa [8]", "result": 1320, "unit": "nM"},
      {"measurement": "Activity", "setting": "HeLa [9]", "result": "inactive"},
      {"measurement": "Activity", "setting": "HeLa [10]", "result": "inactive"},
      {"measurement": "Activity", "setting": "Ca-Ski [11]", "result": "inactive"},
      {"measurement": "Activity", "setting": "Ca-Ski [12]", "result": "inactive"},
      {"measurement": "Activity", "setting": "Ca-Ski [13]", "result": "inactive"},
      {"measurement": "Activity", "setting": "HeLa [14]", "result": "inactive"},
      {"measurement": "Activity", "setting": "HeLa [15]", "result": "Moderate_effect"},
      {"measurement": "Activity", "setting": "Ca-Ski [16]", "result": "Active"},
      {"measurement": "Activity", "setting": "HeLa [17]", "result": "Active"},
      {"measurement": "Activity", "setting": "Ca-Ski [18]", "result": "Active"},
      {"measurement": "Activity", "setting": "HeLa [19]", "result": "Active"},
      {"measurement": "IC50", "setting": "HeLa [20]", "result": 1630, "unit": "nM"},
      {"measurement": "Activity", "setting": "HeLa [21]", "result": "inactive"},
      {"measurement": "Activity", "setting": "Ca-Ski [22]", "result": "inactive"},
      {"measurement": "Activity", "setting": "Ca-Ski [23]", "result": "inactive"},
      {"measurement": "inhibition", "setting": "HeLa [24]", "result": "Minimal_effect"},
      {"measurement": "Activity", "setting": "[25]", "result": "Non-toxic"},
      {"measurement": "Activity", "setting": "[26]", "result": "Non-toxic"},
      {"measurement": "Activity", "setting": "[27]", "result": "Non-toxic"},
      {"measurement": "Activity", "setting": "[28]", "result": "Non-toxic"},
      {"measurement": "Activity", "setting": "[29]", "result": "Non-toxic"},
      {"measurement": "Activity", "setting": "Ca-Ski [30]", "result": "Active"},
      {"measurement": "Activity", "setting": "Ca-Ski [31]", "result": "Active"}
    ]}
  ]
}
